Experimental findings from publication PMC6047530 (Journal of medicinal chemistry, 2018) are described below.

The subject of one data set is MEF PARP-2 KO−/− cells. Nature of the data set: Cell viability assay in MEF PARP-2 KO−/− cells. In kind it is cell-based. The settings on record: Mus musculus, read-out: PARP-2−/− EC50.
The next data set deals with MEF PARP-1 KO−/− cells. Nature of the data set: Cell viability assay in MEF PARP-1 KO−/− cells. In kind it is cell-based, mouse. Particulars: for EC50: Mus musculus, read-out: PARP-1−/− EC50; for cell death, in words: MEF PARP-1 KO−/−.
Another data set has as its system MEF WT cells. Nature of the data set: Cell viability assay in MEF WT cells. In kind it is cell-based, mouse. The settings on record: for EC50: Mus musculus, read-out: WT EC50; for cell death, in words: MEF WT.
Another data set deals with PARP-1 (Homo sapiens, UniProt P09874). Kind of data set: PARP-1 radioligand binding. The settings on record: 10c vs 10a; 15b vs 15a.
PARP-1, sequence (P09874 whole entry): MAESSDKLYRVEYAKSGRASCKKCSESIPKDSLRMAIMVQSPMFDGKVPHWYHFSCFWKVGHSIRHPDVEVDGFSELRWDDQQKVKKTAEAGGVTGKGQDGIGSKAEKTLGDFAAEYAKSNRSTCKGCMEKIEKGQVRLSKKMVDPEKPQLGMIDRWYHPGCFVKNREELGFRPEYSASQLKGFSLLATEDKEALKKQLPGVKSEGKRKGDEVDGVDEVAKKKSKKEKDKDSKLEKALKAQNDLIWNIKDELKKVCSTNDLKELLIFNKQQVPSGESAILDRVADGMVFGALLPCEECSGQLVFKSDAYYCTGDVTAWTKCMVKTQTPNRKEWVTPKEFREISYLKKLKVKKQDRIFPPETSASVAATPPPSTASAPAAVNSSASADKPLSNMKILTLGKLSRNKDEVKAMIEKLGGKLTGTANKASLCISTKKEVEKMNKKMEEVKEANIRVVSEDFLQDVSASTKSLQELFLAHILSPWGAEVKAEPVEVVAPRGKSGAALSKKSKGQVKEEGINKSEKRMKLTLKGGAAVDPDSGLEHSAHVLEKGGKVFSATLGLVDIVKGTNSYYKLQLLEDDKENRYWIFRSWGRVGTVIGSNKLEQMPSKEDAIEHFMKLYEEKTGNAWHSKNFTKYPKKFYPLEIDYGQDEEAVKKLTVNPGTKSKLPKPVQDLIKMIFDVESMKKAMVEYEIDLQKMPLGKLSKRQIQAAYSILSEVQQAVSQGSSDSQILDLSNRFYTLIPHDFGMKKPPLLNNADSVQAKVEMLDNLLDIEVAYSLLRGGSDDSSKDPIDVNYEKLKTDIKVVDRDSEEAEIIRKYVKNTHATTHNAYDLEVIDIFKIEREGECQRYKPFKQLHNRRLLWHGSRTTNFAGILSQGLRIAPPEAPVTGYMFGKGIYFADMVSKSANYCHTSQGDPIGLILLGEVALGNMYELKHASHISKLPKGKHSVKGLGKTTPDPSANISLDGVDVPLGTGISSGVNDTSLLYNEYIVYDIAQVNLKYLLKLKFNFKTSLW
The test system of data set [1] is γH2AX foci in OVCAR8 cells. Kind of data set: Immunofluorescent cell microscopy of γH2AX foci. In kind it is cell-based. Particulars: 0.01-10 μM, 24 hrs.
For data set [2], the system named is poly(ADP-ribose) (PAR), biochemical product of PARP-1. Nature of the data set: Western blot analysis of PAR expression in OVCAR8 cells. In kind it is cell-based. The settings on record: OVCAR8 cells treated 6 h.
The test system of data set [3] is OVCAR8 (BRCA1-methylated) cell line. Kind of data set: Cytotoxicity screen in OVCAR8 cells at 10 μM. In kind it is cell-based.
For a further data set, the system named is UWB1.289 cells. Nature of the data set: Cell viability assay in UWB1.289. In kind it is cell-based. The settings on record: UWB1.289 isogenic cell lines.
The test system of a further data set is other PARPs. Nature of the data set: PARPs enzyme inhibition panel at 10 μM. In kind it is biochemical.

Entries after “also recorded” stand apart in the source; their conditions may differ. Bounds are passed on as bounds.

As to `O=C(c1cc(Cc2n[nH]c(=O)c3ccccc23)ccc1F)N1CCC12CNC2` [Compound 11c, 4-(4-Fluoro-3-(1,6-diazaspiro[3.3]heptane-1-carbonyl)benzyl)phthalazin-1(2H)-one], the EC50 in the data set with MEF PARP-2 KO−/− cells, in the data set with MEF PARP-1 KO−/− cells and with MEF WT cells was greater than 100 µM in each case.

`O=C(c1cc(Cc2n[nH]c(=O)c3ccccc23)ccc1F)N1CCC2(CCCC2)C1` [Compound 15a, 4-(4-Fluoro-3-(2-azaspiro[4.4]nonane-2-carbonyl)benzyl)phthalazin-1(2H)-one]: the EC50 in the data set on MEF PARP-1 KO−/− cells is greater than 100 µM.

For the compound `CC(C)(C)OC(=O)N1CCC2(CC1)CCN2C(=O)c1cc(Cc2n[nH]c(=O)c3ccccc23)ccc1F` [Compound 13b, Tert-butyl 1-(2-fluoro-5-((4-oxo-3,4-dihydrophthalazin-1-yl)methyl)benzoyl)-1,7-diazaspiro[3.5]nonane-7-carboxylate], the EC50 in the data set on MEF PARP-1 KO−/− cells is greater than 100 µM.

Consider `CC(C)(C)OC(=O)N1CC2(CCN2C(=O)c2cc(Cc3n[nH]c(=O)c4ccccc34)ccc2F)C1` [Compound 11b, Tert-butyl 1-(2-fluoro-5-((4-oxo-3,4-dihydrophthalazin-1-yl)methyl)benzoyl)-1,6-diazaspiro[3.3]heptane-6-carboxylate], for which the EC50 in the data set with MEF PARP-1 KO−/− cells was greater than 100 µM.

In the case of `CC(C)(C)OC(=O)N1CCC2(CCN(C(=O)c3cc(Cc4n[nH]c(=O)c5ccccc45)ccc3F)C2)C1` (centres unmarked) [Compound 15b, Tert-butyl 7-(2-fluoro-5-((4-oxo-3,4-dihydrophthalazin-1-yl)methyl)benzoyl)-2,7-diazaspiro[4.4]nonane-2-carboxylate], the “fold lower PARP-1 affinity compared to methylene congener” value at PARP-1 is reported as ~ 85 fold. Also, the “DNA damage (γ-H2AX foci), in words” value in [1] was “induced DNA damage at micromolar concentrations; also recorded: induced DNA damage in a dose dependent manner”. For the same compound, in [2], the “inhibition of PARP activity (PAR synthesis), in words” value is recorded as “inhibit PARP activity in a manner similar to olaparib”.

As for `O=C(c1cc(Cc2n[nH]c(=O)c3ccccc23)ccc1F)N1CCC2(CCNCC2)C1` [Compound 16c, 4-(4-Fluoro-3-(2,8-diazaspiro[4.5]decane-2-carbonyl)benzyl)phthalazin-1(2H)-one], the EC50 with MEF PARP-2 KO−/− cells, in the data set with MEF PARP-1 KO−/− cells and in the data set on MEF WT cells was greater than 100 µM throughout.

Turning to `O=C(c1cc(Cc2n[nH]c(=O)c3ccccc23)ccc1F)N1CCC12CCNCC2` [Compound 13c, 4-(4-Fluoro-3-(1,7-diazaspiro[3.5]nonane-1-carbonyl)benzyl)phthalazin-1(2H)-one], the EC50 in the data set on MEF PARP-1 KO−/− cells and in the data set on MEF WT cells was greater than 100 µM in each case.

Turning to `O=C(c1cc(Cc2n[nH]c(=O)c3ccccc23)ccc1F)N1CC2(CCC2)C1` [Compound 10a, 4-(4-Fluoro-3-(2-azaspiro[3.3]heptane-2-carbonyl)benzyl)phthalazin-1(2H)-one], in data set [3], the “cytotoxicity / anti-proliferative activity (in words)” value was “poor cytotoxic properties”. Besides, the EC50 with MEF PARP-1 KO−/− cells is greater than 100 µM.

`O=C(C1CC1)N1CC2(CCN2C(=O)c2cc(Cc3n[nH]c(=O)c4ccccc34)ccc2F)C1` [Compound 11d, 4-(3-(6-(Cyclopropanecarbonyl)-1,6-diazaspiro[3.3]heptane-1-carbonyl)-4-fluorobenzyl)phthalazin-1(2H)-one]: the EC50 in the data set with MEF PARP-1 KO−/− cells was greater than 100 µM.

`O=C(c1cc(Cc2n[nH]c(=O)c3ccccc23)ccc1F)N1CCC12CCCCC2` [Compound 13a, 4-(4-Fluoro-3-(1-azaspiro[3.5]nonane-1-carbonyl)benzyl)phthalazin-1(2H)-one]: the EC50 in the data set with MEF PARP-1 KO−/− cells is greater than 100 µM.

Consider `O=C(c1cc(Cc2n[nH]c(=O)c3ccccc23)ccc1F)N1CC2(CNC2)C1` [Compound 10d, 4-(4-Fluoro-3-(2,6-diazaspiro[3.3]heptane-2-carbonyl)benzyl)phthalazin-1(2H)-one], for which the EC50 in the data set with MEF PARP-2 KO−/− cells, in the data set on MEF PARP-1 KO−/− cells and with MEF WT cells was greater than 100 µM each time. Further, the “cell death, in words” value in the data set on MEF PARP-1 KO−/− cells and in the data set with MEF WT cells was “no cell death was observed” in each case.

In the case of `O=C(c1cc(Cc2n[nH]c(=O)c3ccccc23)ccc1F)N1CCC2(CCCCC2)CC1` [Compound 17a, 4-(4-Fluoro-3-(3-azaspiro[5.5]undecane-3-carbonyl)benzyl)phthalazin-1(2H)-one], the EC50 in the data set with MEF PARP-1 KO−/− cells was greater than 100 µM.

On to `CC(C)(C)OC(=O)N1CC2(C1)CN(C(=O)c1cc(Cc3n[nH]c(=O)c4ccccc34)ccc1F)C2` [Compound 10c, Tert-butyl 6-(2-fluoro-5-((4-oxo-3,4-dihydrophthalazin-1-yl)methyl)benzoyl)-2,6-diazaspiro[3.3]heptane-2-carboxylate], for which the EC50 with MEF PARP-1 KO−/− cells was greater than 100 µM. In addition, the “fold lower PARP-1 affinity compared to methylene congener” value at PARP-1 is on record as ~ 16 fold.

For the compound `O=C(c1cc(Cc2n[nH]c(=O)c3ccccc23)ccc1F)N1CCC2(CCNCC2)CC1` [Compound 17c, 4-(4-Fluoro-3-(3,9-diazaspiro[5.5]undecane-3-carbonyl)benzyl)phthalazin-1(2H)-one], the EC50 with MEF PARP-1 KO−/− cells and with MEF WT cells was greater than 100 µM each time.

As for `O=C(c1cc(Cc2n[nH]c(=O)c3ccccc23)ccc1F)N1CCC2(CCNC2)C1` (centres unmarked) [Compound 15c, 4-(4-Fluoro-3-(2,7-diazaspiro[4.4]nonane-2-carbonyl)benzyl)phthalazin-1(2H)-one], the EC50 with MEF PARP-1 KO−/− cells and in the data set on MEF WT cells was greater than 100 µM each time.

On to `O=C(c1cc(Cc2n[nH]c(=O)c3ccccc23)ccc1F)N1CC2(CCCCC2)C1` [Compound 12a, 4-(4-Fluoro-3-(2-azaspiro[3.5]nonane-2-carbonyl)benzyl)phthalazin-1(2H)-one], for which the “cytotoxicity / anti-proliferative activity (in words)” value in [3] is “poor cytotoxic properties”.

`O=C(c1cc(Cc2n[nH]c(=O)c3ccccc23)ccc1F)N1CC2(CCN(C(=O)C3CC3)CC2)C1` [Compound 12d, 4-(3-(7-(Cyclopropanecarbonyl)-2,7-diazaspiro[3.5]nonane-2-carbonyl)-4-fluorobenzyl)phthalazin-1(2H)-one]: the EC50 with MEF PARP-1 KO−/− cells is greater than 100 µM.

For the compound `O=C(c1cc(Cc2n[nH]c(=O)c3ccccc23)ccc1F)N1CCC2(CCN(C(=O)C3CC3)C2)C1` (centres unmarked) [Compound 15d, 4-(3-(7-(Cyclopropanecarbonyl)-2,7-dizaspiro[4.4]nonane-2-carbonyl)-4-fluorobenzyl)phthalazin-1(2H)-one], the EC50 in the data set with MEF PARP-1 KO−/− cells and in the data set on MEF WT cells was greater than 100 µM each time.

On to `O=C(c1cc(Cc2n[nH]c(=O)c3ccccc23)ccc1F)N1CCC2(CC1)CCN(C(=O)C1CC1)CC2` [Compound 17d, 4-(3-(9-(Cyclopropanecarbonyl)-3,9-diazaspiro[5.5]undecane-3-carbonyl)-4-fluorobenzyl)phthalazin-1(2H)-one], for which the “cytotoxicity / anti-proliferative activity (in words)” value in [3] is listed as “poor cytotoxic properties”.

On to `O=C(c1cc(Cc2n[nH]c(=O)c3ccccc23)ccc1F)N1CC2(COC2)C1` [Compound 10b, 4-(4-Fluoro-3-(2-oxa-6-azaspiro[3.3]heptane-6-carbonyl)benzyl)phthalazin-1(2H)-one], for which, in the data set on MEF PARP-1 KO−/− cells, the EC50 was greater than 100 µM.

Regarding `O=C(c1cc(Cc2n[nH]c(=O)c3ccccc23)ccc1F)N1CCC12CCC2` [Compound 11a, 4-(4-Fluoro-3-(1-azaspiro[3.3]heptane-1-carbonyl)benzyl)phthalazin-1(2H)-one], the EC50 in the data set on MEF PARP-1 KO−/− cells is greater than 100 µM.

`O=C(c1cc(Cc2n[nH]c(=O)c3ccccc23)ccc1F)N1CC2(C1)CN(C(=O)C1CC1)C2` [Compound 10e, 4-(3-(6-(Cyclopropanecarbonyl)-2,6-diazaspiro[3.3]heptane-2-carbonyl)-4-fluorobenzyl)phthalazin-1(2H)-one]: the “cytotoxic concentration (EC50) relative to olaparib” value in the data set with UWB1.289 cells is given as “approximately 7 fold”. In the data set with MEF PARP-1 KO−/− cells, the “cell death, in words” value is “no measurable cell death” and the EC50 is greater than 100 µM. The “off-target enzymatic inhibition of other PARPs, in words” value with other PARPs is “minimal off-target activity; also recorded: less enzymatic inhibition with most other PARPs”. In the data set with MEF WT cells, the “cell death, in words” value is recorded as “no measurable cell death” and the EC50 is greater than 100 µM. Besides, in data set [1], the “DNA damage (γ-H2AX foci), in words” value was “did not induce DNA damage at similar drug concentrations as olaparib; also recorded: unable to induce DNA damage at concentrations as high as 10 μM”. The “inhibition of PARP activity (PAR synthesis), in words” value in data set [2] is given as “inhibit PARP activity in a manner similar to olaparib”.

As to `O=C(C1CC1)N1CCC2(CC1)CCN2C(=O)c1cc(Cc2n[nH]c(=O)c3ccccc23)ccc1F` [Compound 13d, 4-(3-(7-(Cyclopropanecarbonyl)-1,7-diazaspiro[3.5]nonane-1-carbonyl)-4-fluorobenzyl)phthalazin-1(2H)-one], the EC50 in the data set on MEF PARP-1 KO−/− cells was greater than 100 µM.

With `O=C(c1cc(Cc2n[nH]c(=O)c3ccccc23)ccc1F)N1CCC2(CCN(C(=O)C3CC3)CC2)C1` [Compound 16d, 4-(3-(8-(Cyclopropanecarbonyl)-2,8-diazaspiro[4.5]decane-2-carbonyl)-4-fluorobenzyl)phthalazin-1(2H)-one], the EC50 in the data set with MEF PARP-1 KO−/− cells is greater than 100 µM.

`O=C(c1cc(Cc2n[nH]c(=O)c3ccccc23)ccc1F)N1CCN(C(=O)C2CC2)CC1` [olaparib, reference compound]: the “DNA damage (γ-H2AX foci), in words” value in data set [1] is recorded as “induced DNA damage in a dose dependent manner”.

Consider `O=C(c1cc(Cc2n[nH]c(=O)c3ccccc23)ccc1F)N1CC2(CCNCC2)C1` [Compound 12c, 4-(4-Fluoro-3-(2,7-diazaspiro[3.5]nonane-2-carbonyl)benzyl)phthalazin-1(2H)-one], for which the EC50 in the data set on MEF PARP-1 KO−/− cells and with MEF WT cells was greater than 100 µM each time.
